Tested on: Mycobacterium tuberculosis
Experiment: Antimycobacterial activity against isoniazid, rifampicin, ofloxacin and kanamycin-resistant Mycobacterium tuberculosis H37Rv ATCC 27294 clinical isolate after 28 days by two-fold serial dilution assay in presence of […] piperine efflux pump inhibitor
Format: functional
Settings: H37Rv ATCC 27294, 672 h

In order of falling MIC:
1. CC[C@@H](CO)NCCN[C@@H](CC)CO [ETHAMBUTOL]  245 µM
2. O=C(Cn1cnc2ccc(Cl)cc2c1=O)Nc1cc(C(F)(F)F)ccc1Cl  60.1 µM
3. NNC(=O)c1ccncc1 [ISONIAZID]  45.6 µM
4. O=C(Cn1cnc2ccc(Cl)cc2c1=O)Nc1ccccc1  39.8 µM
5. O=C(Cn1cnc2ccc(Cl)cc2c1=O)NCc1ccco1  39.3 µM
6. O=C(Cn1cnc2ccc(Cl)cc2c1=O)NCc1cccs1  37.4 µM
7. CO[C@H]1/C=C/O[C@@]2(C)Oc3c(C)c(O)c4c(O)c(c(/C=N/N5CCN(C)CC5)c(O)c4c3C2=O)NC(=O)/C(C)=C\C=C\[C@H](C)[C@H](O)[C@@H](C)[C@@H](O)[C@@H](C)[C@H](OC(C)=O)[C@@H]1C [RIFAMPIN]  30.4 µM
8. O=C(Cn1cnc2ccccc2c1=O)Nc1ccccc1  22.4 µM
9. O=C(Cn1cnc2ccccc2c1=O)NCc1cccs1  20.9 µM
10. Cc1nc2ccccc2c(=O)n1CC(=O)NCc1cccs1  19.9 µM
11. Cc1nc2ccc(Cl)cc2c(=O)n1CC(=O)Nc1ccccc1  19.1 µM
12. Cc1nc2ccc(Cl)cc2c(=O)n1CC(=O)NCc1ccco1  18.8 µM
13. O=C(Cn1cnc2ccccc2c1=O)NCc1ccco1  11 µM
14. O=C(Cn1cnc2ccccc2c1=O)Nc1cc(C(F)(F)F)ccc1Cl  8.18 µM
15. O=C(Cn1cnc2ccccc2c1=O)NCc1nc2ccc([N+](=O)[O-])cc2s1  4.09 µM
